Reference: article PMC6311682, “Design, Synthesis, and Biological Evaluation of 2-Nitroimidazopyrazin-one/-es with Antitubercular and Antiparasitic Activity” (Journal of Medicinal Chemistry, 2018)
In brackets after ≈: the same amount, converted by molar mass.

system: not listed separately; assay: Kinetic solubility determination by LC-UV; conditions: PBS, pH 7.4, Solubility µM (PBS), PBS pH 7.4, 24 h, room temperature, 1% DMSO

| SMILES | solubility at 24 h [µM] |
| --- | --- |
| O=[N+]([O-])c1cn2ccnc(OCc3ccccc3OC(F)(F)F)c2n1 [18i, 2-Nitro-8-((2-(trifluoromethoxy)benzyl)oxy)imidazo[1,2-a]pyrazine] | < 5 |
| O=c1c2nc([N+](=O)[O-])cn2cc(-c2ccccc2)n1CCO [24d, 7-(2-Hydroxyethyl)-2-nitro-6-phenylimidazo[1,2-a]pyrazin-8(7H)-one] | 164 ± 21 (≈ 49.2 µg/mL) |

same assay, conditions: water, Solubility µM (H2O), 24 h, room temperature, 1% DMSO

| SMILES | solubility at 24 h [µM] |
| --- | --- |
| O=[N+]([O-])c1cn2ccnc(OCc3ccccc3OC(F)(F)F)c2n1 [18i, 2-Nitro-8-((2-(trifluoromethoxy)benzyl)oxy)imidazo[1,2-a]pyrazine] | < 5 |
| O=c1c2nc([N+](=O)[O-])cn2cc(-c2ccccc2)n1CCO [24d, 7-(2-Hydroxyethyl)-2-nitro-6-phenylimidazo[1,2-a]pyrazin-8(7H)-one] | 163 ± 15 (≈ 48.9 µg/mL) |

system: L. donovani MHOM/IN/80/DD8 (ATCC50212); assay: L. donovani DD8 intracellular (THP-1) amastigote assay; assay type: cell-based; conditions: Leishmania donovani, read-out: antiparasitic IC50 L. donovani

| SMILES | IC50 [µM] |
| --- | --- |
| O=c1c2nc([N+](=O)[O-])cn2ccn1Cc1ccccn1 [17k, 2-Nitro-7-(pyridin-2-ylmethyl)imidazo[1,2-a]pyrazin-8(7H)-one, 1TFA] | > 80 |
| CC(=O)OCCn1ccn2cc([N+](=O)[O-])nc2c1=O [17o, 2-(2-Nitro-8-oxoimidazo[1,2-a]pyrazin-7(8H)-yl)ethyl Acetate] | > 80 |
| O=c1c2nc([N+](=O)[O-])cn2ccn1CCN1CCOCC1 [17q, 4-(2-(2-Nitro-8-oxoimidazo[1,2-a]pyrazin-7(8H)-yl)ethyl)morpholin-4-ium 2,2,2-Trifluoroacetate] | > 80 |

same assay, conditions: Leishmania donovani, read-out: antiparasitic pIC50 ± SE L. donovani (converted)

| SMILES | IC50 [µM] |
| --- | --- |
| O=c1c2nc([N+](=O)[O-])cn2ccn1Cc1ccccn1 [17k, 2-Nitro-7-(pyridin-2-ylmethyl)imidazo[1,2-a]pyrazin-8(7H)-one, 1TFA] | > 79.4 |
| CC(=O)OCCn1ccn2cc([N+](=O)[O-])nc2c1=O [17o, 2-(2-Nitro-8-oxoimidazo[1,2-a]pyrazin-7(8H)-yl)ethyl Acetate] | > 79.4 |
| O=c1c2nc([N+](=O)[O-])cn2ccn1CCN1CCOCC1 [17q, 4-(2-(2-Nitro-8-oxoimidazo[1,2-a]pyrazin-7(8H)-yl)ethyl)morpholin-4-ium 2,2,2-Trifluoroacetate] | > 79.4 |

system: ESKAPE pathogens S. aureus (ATCC 43300), E. coli (ATCC 25922), K. pneumoniae (ATCC 700603), A. baumannii (ATCC 19606), P. aeruginosa (ATCC 27853); assay: Broth microdilution MIC assay, ESKAPE pathogens; assay type: cell-based; conditions: not given

| SMILES | antibacterial MIC ESKAPE [µg/mL] |
| --- | --- |
| O=c1c2nc([N+](=O)[O-])cn2ccn1Cc1ccccn1 [17k, 2-Nitro-7-(pyridin-2-ylmethyl)imidazo[1,2-a]pyrazin-8(7H)-one, 1TFA] | >32 |
| CC(=O)OCCn1ccn2cc([N+](=O)[O-])nc2c1=O [17o, 2-(2-Nitro-8-oxoimidazo[1,2-a]pyrazin-7(8H)-yl)ethyl Acetate] | >32 |
| O=c1c2nc([N+](=O)[O-])cn2ccn1CCN1CCOCC1 [17q, 4-(2-(2-Nitro-8-oxoimidazo[1,2-a]pyrazin-7(8H)-yl)ethyl)morpholin-4-ium 2,2,2-Trifluoroacetate] | >32 |
| O=[N+]([O-])c1cn2ccnc(OCc3ccccc3OC(F)(F)F)c2n1 [18i, 2-Nitro-8-((2-(trifluoromethoxy)benzyl)oxy)imidazo[1,2-a]pyrazine] | >32 |
| O=[N+]([O-])c1cn2ccnc(OCCc3ccc(OC(F)(F)F)cc3)c2n1 [18m, 2-Nitro-8-(4-(trifluoromethoxy)phenethoxy)imidazo[1,2-a]pyrazine] | >32 |
| O=c1c2nc([N+](=O)[O-])cn2cc(-c2ccccc2)n1CCO [24d, 7-(2-Hydroxyethyl)-2-nitro-6-phenylimidazo[1,2-a]pyrazin-8(7H)-one] | >32 |

system: not listed separately; assay: Broth microdilution MIC assay, ESKAPE pathogens; assay type: cell-based; conditions: S. aureus, E. coli, K. pneumoniae, A. baumannii, P. aeruginosa; read-out: antibacterial MIC ESKAPE

| SMILES | MIC [µg/mL] |
| --- | --- |
| O=c1c2nc([N+](=O)[O-])cn2ccn1Cc1ccccn1 [17k, 2-Nitro-7-(pyridin-2-ylmethyl)imidazo[1,2-a]pyrazin-8(7H)-one, 1TFA] | > 32 |
| CC(=O)OCCn1ccn2cc([N+](=O)[O-])nc2c1=O [17o, 2-(2-Nitro-8-oxoimidazo[1,2-a]pyrazin-7(8H)-yl)ethyl Acetate] | > 32 |
| O=c1c2nc([N+](=O)[O-])cn2ccn1CCN1CCOCC1 [17q, 4-(2-(2-Nitro-8-oxoimidazo[1,2-a]pyrazin-7(8H)-yl)ethyl)morpholin-4-ium 2,2,2-Trifluoroacetate] | > 32 |
| O=[N+]([O-])c1cn2ccnc(OCc3ccccc3OC(F)(F)F)c2n1 [18i, 2-Nitro-8-((2-(trifluoromethoxy)benzyl)oxy)imidazo[1,2-a]pyrazine] | > 32 |
| O=[N+]([O-])c1cn2ccnc(OCCc3ccc(OC(F)(F)F)cc3)c2n1 [18m, 2-Nitro-8-(4-(trifluoromethoxy)phenethoxy)imidazo[1,2-a]pyrazine] | > 32 |
| O=c1c2nc([N+](=O)[O-])cn2cc(-c2ccccc2)n1CCO [24d, 7-(2-Hydroxyethyl)-2-nitro-6-phenylimidazo[1,2-a]pyrazin-8(7H)-one] | > 32 |

system: E. histolytica (HM1:IMSS); assay: ATP-bioluminescence cell growth and survival assay, E. histolytica trophozoites; assay type: cell-based; conditions: Entamoeba histolytica, read-out: antiparasitic IC50 E. histolytica

| SMILES | IC50 [µM] |
| --- | --- |
| O=c1c2nc([N+](=O)[O-])cn2ccn1Cc1ccccn1 [17k, 2-Nitro-7-(pyridin-2-ylmethyl)imidazo[1,2-a]pyrazin-8(7H)-one, 1TFA] | > 50 |
| CC(=O)OCCn1ccn2cc([N+](=O)[O-])nc2c1=O [17o, 2-(2-Nitro-8-oxoimidazo[1,2-a]pyrazin-7(8H)-yl)ethyl Acetate] | > 50 |
| O=c1c2nc([N+](=O)[O-])cn2ccn1CCN1CCOCC1 [17q, 4-(2-(2-Nitro-8-oxoimidazo[1,2-a]pyrazin-7(8H)-yl)ethyl)morpholin-4-ium 2,2,2-Trifluoroacetate] | > 50 |
| O=[N+]([O-])c1cn2ccnc(OCc3ccccc3OC(F)(F)F)c2n1 [18i, 2-Nitro-8-((2-(trifluoromethoxy)benzyl)oxy)imidazo[1,2-a]pyrazine] | > 50 |

same assay, conditions: Entamoeba histolytica, read-out: antiparasitic pIC50 ± SE E. histolytica (converted)

| SMILES | IC50 [µM] |
| --- | --- |
| O=c1c2nc([N+](=O)[O-])cn2ccn1Cc1ccccn1 [17k, 2-Nitro-7-(pyridin-2-ylmethyl)imidazo[1,2-a]pyrazin-8(7H)-one, 1TFA] | > 50.1 |
| CC(=O)OCCn1ccn2cc([N+](=O)[O-])nc2c1=O [17o, 2-(2-Nitro-8-oxoimidazo[1,2-a]pyrazin-7(8H)-yl)ethyl Acetate] | > 50.1 |
| O=[N+]([O-])c1cn2ccnc(OCc3ccccc3OC(F)(F)F)c2n1 [18i, 2-Nitro-8-((2-(trifluoromethoxy)benzyl)oxy)imidazo[1,2-a]pyrazine] | > 50.1 |

system: C. difficile (630, ATCC BAA-1382); assay: Broth microdilution MIC assay, C. difficile; assay type: cell-based, Clostridium difficile; conditions: 630 ATCC BAA-1382, median MIC

| SMILES | antibacterial MIC C. difficile [µg/mL] |
| --- | --- |
| O=c1c2nc([N+](=O)[O-])cn2ccn1Cc1ccccn1 [17k, 2-Nitro-7-(pyridin-2-ylmethyl)imidazo[1,2-a]pyrazin-8(7H)-one, 1TFA] | >64 |
| CC(=O)OCCn1ccn2cc([N+](=O)[O-])nc2c1=O [17o, 2-(2-Nitro-8-oxoimidazo[1,2-a]pyrazin-7(8H)-yl)ethyl Acetate] | >64 |
| O=c1c2nc([N+](=O)[O-])cn2ccn1CCN1CCOCC1 [17q, 4-(2-(2-Nitro-8-oxoimidazo[1,2-a]pyrazin-7(8H)-yl)ethyl)morpholin-4-ium 2,2,2-Trifluoroacetate] | >64 |
| O=c1c2nc([N+](=O)[O-])cn2cc(-c2ccccc2)n1CCO [24d, 7-(2-Hydroxyethyl)-2-nitro-6-phenylimidazo[1,2-a]pyrazin-8(7H)-one] | >64 |

same assay, conditions: Clostridioides difficile, ATCCBAA1382; 630 ATCC BAA-1382, median MIC; read-out: antibacterial MIC C. difficile

| SMILES | MIC [µg/mL] |
| --- | --- |
| O=c1c2nc([N+](=O)[O-])cn2ccn1Cc1ccccn1 [17k, 2-Nitro-7-(pyridin-2-ylmethyl)imidazo[1,2-a]pyrazin-8(7H)-one, 1TFA] | > 64 |
| CC(=O)OCCn1ccn2cc([N+](=O)[O-])nc2c1=O [17o, 2-(2-Nitro-8-oxoimidazo[1,2-a]pyrazin-7(8H)-yl)ethyl Acetate] | > 64 |
| O=c1c2nc([N+](=O)[O-])cn2ccn1CCN1CCOCC1 [17q, 4-(2-(2-Nitro-8-oxoimidazo[1,2-a]pyrazin-7(8H)-yl)ethyl)morpholin-4-ium 2,2,2-Trifluoroacetate] | > 64 |
| O=[N+]([O-])c1cn2ccnc(OCCc3ccc(OC(F)(F)F)cc3)c2n1 [18m, 2-Nitro-8-(4-(trifluoromethoxy)phenethoxy)imidazo[1,2-a]pyrazine] | 64 (≈ 174 µM) |
| O=c1c2nc([N+](=O)[O-])cn2cc(-c2ccccc2)n1CCO [24d, 7-(2-Hydroxyethyl)-2-nitro-6-phenylimidazo[1,2-a]pyrazin-8(7H)-one] | > 64 |

system: C. albicans (ATCC 90028) and C. neoformans (H99, ATCC 208821); assay: Broth microdilution MIC assay, fungi; assay type: cell-based; conditions: not given

| SMILES | antifungal MIC [µg/mL] |
| --- | --- |
| O=c1c2nc([N+](=O)[O-])cn2cc(-c2ccccc2)n1CCO [24d, 7-(2-Hydroxyethyl)-2-nitro-6-phenylimidazo[1,2-a]pyrazin-8(7H)-one] | >32 |

same assay, conditions: Candida albicans, read-out: antifungal MIC

| SMILES | MIC [µg/mL] |
| --- | --- |
| O=c1c2nc([N+](=O)[O-])cn2cc(-c2ccccc2)n1CCO [24d, 7-(2-Hydroxyethyl)-2-nitro-6-phenylimidazo[1,2-a]pyrazin-8(7H)-one] | > 32 |
